Reference: patent publication US20060035925A1, “SUBSTITUTED 4H-CHROMENES AND ANALOGS AS ACTIVATORS OF CASPASES AND INDUCERS OF APOPTOSIS AND THE USE THEREOF” (Cytovia, Inc., priority 1999, published 2006)
Where two headings read alike, the source gives them in different places.

Experiments:
[1] = test system: Human breast cancer cell line T-47D; test: Caspase cascade activation assay (N-(Ac-DEVD)-N'-ethoxycarbonyl-R110 fluorogenic substrate) in T-47D cells; format: cell-based; conditions: for Caspase activity (Ratio) T-47D: 24 h incubation with compound, ratio of net RFU (T=3 h) of test compound to control; for EC50: 24 h incubation, sigmoidal dose-response, read-out: Caspase potency EC50 (nM) T-47D
Outline: (§1)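 Cells were exposed for 24 h at 37 °C to test compound at 0.016–1 μM final. Lysed with lysolecithin buffer (pH 7.2, DTT) containing 20 μM Ac-DEVD-R110 substrate, and fluorescence (ex 485/em 530 nm) read at 0 and 3 h at room temperature. EC50 from sigmoidal fit of net RFU ratio to control.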

[2] = test system: Human breast cancer cell line ZR-75-1; test: Caspase cascade activation assay (N-(Ac-DEVD)-N'-ethoxycarbonyl-R110 fluorogenic substrate) in ZR-75-1 cells; format: cell-based; conditions: ZR-75-1 cells; for EC50: 24 h incubation, sigmoidal dose-response, read-out: Caspase potency EC50 (nM) ZR-75-1; for Caspase activity (Ratio) ZR-75-1: 24 h incubation with compound, ratio of net RFU (T=3 h) of test compound to control
Outline: as §1

Structure (SMILES): N#CC1=C(N)OC2C(=CC=C3C=CN=C32)C1c1cncc(C#N)c1 (stereo not shown) [Example 60, 2-Amino-3-cyano-4-(5-cyano-pyridin-3-yl)-4H-indolo[7,6-b]pyran]
- Caspase activity (Ratio) T-47D [1]: 6.7
- EC50 ([1]; Homo sapiens, T47D, 24 h): 388 nM
- EC50 ([2]; Homo sapiens, ZR-75-1, 24 h): 57 nM
- Caspase activity (Ratio) ZR-75-1 [2]: 5.5

Structure (SMILES): Cc1cncc(C2C3=CC=C4C=CN=C4C3OC(N)=C2C#N)n1 (stereo not shown) [Example 61, 2-Amino-3-cyano-4-(6-methyl-pyrazin-2-yl)-4H-indolo[7,6-b]pyran]
- Caspase activity (Ratio) T-47D [1]: 4.1
- EC50 ([1]; Homo sapiens, T47D, 24 h): 2900 nM
- EC50 ([2]; Homo sapiens, ZR-75-1, 24 h): 1630 nM
- Caspase activity (Ratio) ZR-75-1 [2]: 7.0

Structure (SMILES): COc1cc(C2C(C#N)=C(N)Oc3cc(Br)ccc32)cc(Br)c1OC (stereo not shown) [Example 62, 2-Amino-7-bromo-4-(3-bromo-4,5-dimethoxy-phenyl)-3-cyano-4H-chromene]
- Caspase activity (Ratio) T-47D [1]: 6.6
- EC50 ([1]; Homo sapiens, T47D, 24 h): 144 nM
- EC50 ([2]; Homo sapiens, ZR-75-1, 24 h): 75.3 nM
- Caspase activity (Ratio) ZR-75-1 [2]: 6.0

Structure (SMILES): COc1cc(C2C(C#N)=C(N)Oc3cc(Cl)ccc32)cc(Br)c1OC (stereo not shown) [Example 63, 2-Amino-4-(3-bromo-4,5-dimethoxy-phenyl)-7-chloro-3-cyano-4H-chromene]
- Caspase activity (Ratio) T-47D [1]: 9.1
- EC50 ([1]; Homo sapiens, T47D, 24 h): 147 nM
- EC50 ([2]; Homo sapiens, ZR-75-1, 24 h): 114 nM
- Caspase activity (Ratio) ZR-75-1 [2]: 10.1

Structure (SMILES): COc1cc(C2C(C#N)=C(N)Oc3c2ccc2[nH]cnc32)cc(Br)c1OC (stereo not shown) [Example 64, 2-Amino-3-cyano-4-(3-bromo-4,5-dimethoxy-phenyl)-4H-imidazo[4,5-h]chromene]
- Caspase activity (Ratio) T-47D [1]: 8.0
- EC50 [1]: 28.8 nM
- Caspase activity (Ratio) ZR-75-1 [2]: 4.8
- EC50 [2]: 13.2 nM

Structure (SMILES): COc1cc(C2C(C#N)=C(N)Oc3c2ccc2[nH]c(C)nc32)cc(Br)c1OC (stereo not shown) [Example 65, 2-Amino-3-cyano-4-(3-bromo-4,5-dimethoxy-phenyl)-8-methyl-4H-imidazo[4,5-h]-chromene]
- Caspase activity (Ratio) T-47D [1]: 1.5
- EC50 [1]: > 1000 nM
- Caspase activity (Ratio) ZR-75-1 [2]: 6.0
- EC50 [2]: 570 nM

Structure (SMILES): COc1cc(C2C(C#N)=C(N)Oc3cc(N4CCCC4)ccc32)cc(Br)c1OC (stereo not shown) [Example 66A, 2-Amino-3-cyano-7-pyrrolidine-4-(3-bromo-4,5-dimethoxyphenyl)-4H-chromene]
- Caspase activity (Ratio) T-47D [1]: 3.7
- EC50 [1]: 110 nM
- Caspase activity (Ratio) ZR-75-1 [2]: 6.0
- EC50 [2]: 79.4 nM

Structure (SMILES): COc1cc(C2C(C#N)=C(N)Oc3cc(N4CCNCC4)ccc32)cc(Br)c1OC (stereo not shown) [Example 66B, 2-Amino-3-cyano-7-piperazine-4-(3-bromo-4,5-dimethoxyphenyl)-4H-chromene]
- Caspase activity (Ratio) T-47D [1]: 5.7
- EC50 [1]: 2910 nM
- Caspase activity (Ratio) ZR-75-1 [2]: 6.8
- EC50 [2]: 1470 nM

Structure (SMILES): COc1cc(C2C(C#N)=C(N)Oc3cc(N4CCOCC4)ccc32)cc(Br)c1OC (stereo not shown) [Example 66C, 2-Amino-3-cyano-7-N-morpholine-4-(3-bromo-4,5-dimethoxyphenyl)-4H-chromene]
- Caspase activity (Ratio) T-47D [1]: 10.4
- EC50 [1]: 166 nM
- Caspase activity (Ratio) ZR-75-1 [2]: 7.4
- EC50 [2]: 86.8 nM

Structure (SMILES): COc1cc(C2C(C#N)=C(N)Oc3cc(-n4cccc4)ccc32)cc(Br)c1OC (stereo not shown) [Example 67, 2-Amino-3-cyano-7-pyrrole-4-(3-bromo-4,5-dimethoxyphenyl)-4H-chromene]
- Caspase activity (Ratio) T-47D [1]: 9.2
- EC50 [1]: 349 nM
- Caspase activity (Ratio) ZR-75-1 [2]: 6.9
- EC50 [2]: 148 nM

Structure (SMILES): COc1cc(C2(C)C(C#N)=C(N)Oc3cc(N(C)C)ccc32)cc(Br)c1OC (stereo not shown) [Example 68A, 2-Amino-3-cyano-7-dimethylamino-4-(3-bromo-4,5-dimethoxyphenyl)-4-methylchromene]
- Caspase activity (Ratio) T-47D [1]: 6.8
- EC50 ([1]; Homo sapiens, T47D, 24 h): 1980 nM
- EC50 ([2]; Homo sapiens, ZR-75-1, 24 h): 1470 nM
- Caspase activity (Ratio) ZR-75-1 [2]: 6.5

Structure (SMILES): CC1(c2ccccc2)C(C#N)=C(N)Oc2ccccc21 (stereo not shown) [Example 68B, 2-Amino-3-cyano-4-phenyl-4-methylchromene]
- Caspase activity (Ratio) T-47D [1]: 1.0
- EC50 ([1]; Homo sapiens, T47D, 24 h): > 10000 nM
- EC50 ([2]; Homo sapiens, ZR-75-1, 24 h): > 10000 nM
- Caspase activity (Ratio) ZR-75-1 [2]: 1.8

Structure (SMILES): C1CCNCC1.C1CCNCC1.COc1cc(C2C(C#N)=C(N)Oc3c2ccc2[nH]ccc32)cc(Br)c1OP(=O)(O)O (stereo not shown) [Example 69, 2-Amino-3-cyano-4-(3-bromo-4-phosphoric acid-dipiperidine salt-5-methoxyphenyl)-4H-indolo[4,5-b]pyran]
- Caspase activity (Ratio) T-47D [1]: 3.5
- EC50 [1]: 582 nM
- Caspase activity (Ratio) ZR-75-1 [2]: 5.6
- EC50 [2]: 284 nM

Structure (SMILES): COc1cccc(C2C(C#N)=C(N)Sc3cc(OC)ccc32)c1 (stereo not shown) [Example 70, 2-Amino-3-cyano-7-methoxy-4-(3-methoxyphenyl)-4H-thiochromene]
- Caspase activity (Ratio) T-47D [1]: 9.1
- EC50 ([1]; Homo sapiens, T47D, 24 h): 90.7 nM
- EC50 ([2]; Homo sapiens, ZR-75-1, 24 h): 45.3 nM
- Caspase activity (Ratio) ZR-75-1 [2]: 6.6

Structure (SMILES): N#CC1=C(N)Nc2ccccc2C1c1ccccc1 (stereo not shown) [Example 71, 2-Amino-3-cyano-4-phenyl-1,4-dihydroquinoline]
- Caspase activity (Ratio) T-47D [1]: 3.1
- EC50 ([1]; Homo sapiens, T47D, 24 h): 7850 nM
- EC50 ([2]; Homo sapiens, ZR-75-1, 24 h): 3720 nM
- Caspase activity (Ratio) ZR-75-1 [2]: 4.1

Structure (SMILES): COC(=O)C1=C(N)Oc2c(ccc3[nH]ccc23)C1c1cc(Br)c(OC)c(OC)c1 (stereo not shown) [Example 73]
- Caspase activity (Ratio) T-47D [1]: 7.5
- EC50 [1]: 29.4 nM
- Caspase activity (Ratio) ZR-75-1 [2]: 9.0
- EC50 [2]: 26.7 nM

Structure (SMILES): COc1cc(C2C(C#N)=C(N)Oc3c2ccc(N)c3O)cc(Br)c1OC (stereo not shown) [Example 74, 2-Amino-3-cyano-7-amino-8-hydroxy-4-(3-bromo-4,5-dimethoxyphenyl)-4H-chromene]
- Caspase activity (Ratio) T-47D [1]: 7.4
- EC50 ([1]; Homo sapiens, T47D, 24 h): 149 nM
- EC50 ([2]; Homo sapiens, ZR-75-1, 24 h): 99.3 nM
- Caspase activity (Ratio) ZR-75-1 [2]: 8.9

Structure (SMILES): CNC1=C(C#N)C(c2cc(Br)c(OC)c(OC)c2)c2ccc3ccn(C)c3c2O1 (stereo not shown) [Example 76, 3-Cyano-4-(3-bromo-4,5-dimethoxyphenyl)-2-methylamino-9-methyl-4H-pyrrolo[3,2-h]chromene]
- Caspase activity (Ratio) T-47D [1]: 2.0
- EC50 ([1]; Homo sapiens, T47D, 24 h): > 10000 nM
- EC50 ([2]; Homo sapiens, ZR-75-1, 24 h): 4100 nM
- Caspase activity (Ratio) ZR-75-1 [2]: 2.3

Structure (SMILES): COc1cc(C2C(C#N)=C(N)Oc3c2ccc2ccn(C)c32)cc(Br)c1OC (stereo not shown) [Example 77, 2-Amino-4-(3-bromo-4,5-dimethoxyphenyl)-3-cyano-9-methyl-4H-pyrrolo[3,2-h]chromene]
- Caspase activity (Ratio) T-47D [1]: 4.2
- EC50 ([1]; Homo sapiens, T47D, 24 h): 27.7 nM
- EC50 ([2]; Homo sapiens, ZR-75-1, 24 h): 23.9 nM
- Caspase activity (Ratio) ZR-75-1 [2]: 3.1

Structure (SMILES): COc1cccc(C2C(C#N)=C(N)Oc3c2ccc2nccnc32)c1 (stereo not shown) [Example 78, 2-Amino-3-cyano-4-(3-methoxyphenyl)-4H-pyrazino[2,3-h]chromene]
- Caspase activity (Ratio) T-47D [1]: 1.8
- EC50 [1]: > 1000 nM
- Caspase activity (Ratio) ZR-75-1 [2]: 3.6
- EC50 [2]: 537 nM

Structure (SMILES): COc1cc(C2C(C#N)=C(N)Oc3c2ccc2nccnc32)cc(Br)c1OC (stereo not shown) [Example 79, 2-Amino-3-cyano-4-(3-bromo-4,5-dimethoxy-phenyl)-4H-pyrazino [2,3-h]chromene]
- Caspase activity (Ratio) T-47D [1]: 8.3
- EC50 [1]: 209 nM
- Caspase activity (Ratio) ZR-75-1 [2]: 10.2
- EC50 [2]: 103 nM

Structure (SMILES): COc1cc(C2C(C#N)=C(N)Oc3c2ccc2[nH]c(=O)[nH]c32)cc(Br)c1OC (stereo not shown) [Example 80, 2-Amino-3-cyano-4-(3-bromo-4,5-dimethoxy-phenyl)-8-oxo-4,7,8,9-tetrahydroimidazo[4,5-h]chromene]
- Caspase activity (Ratio) T-47D [1]: 8.8
- EC50 [1]: 50.5 nM
- Caspase activity (Ratio) ZR-75-1 [2]: 7.5
- EC50 [2]: 21.5 nM
